Results on 3 compounds are retold here after patent US20100029568A1, “TIGHTER-BINDING C-PEPTIDE INHIBITORS OF HIV-1 ENTRY” (priority 2007, published 2010).

In experiment [1] the test system is HIV-1 with resistance mutations at the gp41 HR1 region. The experiment in a line: Viral infectivity, C-peptide-resistant HIV-1 (HR1 region resistance mutations, text statements). Type of experiment: cell-based. On the procedure:
All viral infectivity and cell-cell fusion experiments were performed as described in Chan, D., et. al., 1998, Proc. Natl. Acad. Sci. U.S.A. 95, 15613-15617. Briefly, the potency of C-peptides in inhibiting viral infection was determined using recombinant luciferase-expressing HIV-1 as described by Malashkevich, V. N., et. al., 1998, Proc. Natl. Acad. Sci. USA 95, 9134-9139. To produce virus, 293T cells were co-transfected with the envelope-deficient HIV-1 genome NL43LucR-E-(21) and the HXB2 gp160 expression vector pCMVHXB2 gp160 using calcium phosphate. Viral supernatants were cleared of cellular debris by low-speed centrifugation and used to infect HOS-CD4/Fusin cells (N. Landau, National Institutes of Health AIDS Reagent Program) in the presence of varying concentrations of C-peptide, ranging from 0 to 200 nM. Cells were harvested 48 hr postinfection, and luciferase activity was measured in a Wallac (Gaithersburg, Md.) AutoLumat LB953 luminometer. The IC50 is the peptide concentration that results in a 50% decrease in activity relative to control samples lacking peptide. For each peptide, data from three experiments were fit to a Langmuir equation [y=k/(1+([peptide]/IC50)], where y=luciferase activity and k is a scaling constant] to obtain the IC50 values. […]

Experiment [2] relates to HIV-1 pseudotyped with Res 3 Env (HR2 mutant, N637K), HXB2. In kind it is cell-based. How it is done:
(§1) All viral infectivity and cell-cell fusion experiments were performed as described in Chan, D., et. al., 1998, Proc. Natl. Acad. Sci. U.S.A. 95, 15613-15617. Briefly, the potency of C-peptides in inhibiting viral infection was determined using recombinant luciferase-expressing HIV-1 as described by Malashkevich, V. N., et. al., 1998, Proc. Natl. Acad. Sci. USA 95, 9134-9139. To produce virus, 293T cells were co-transfected with the envelope-deficient HIV-1 genome NL43LucR-E-(21) and the HXB2 gp160 expression vector pCMVHXB2 gp160 using calcium phosphate. Viral supernatants were cleared of cellular debris by low-speed centrifugation and used to infect HOS-CD4/Fusin cells (N. Landau, National Institutes of Health AIDS Reagent Program) in the presence of varying concentrations of C-peptide, ranging from 0 to 200 nM. Cells were harvested 48 hr postinfection, and luciferase activity was measured in a Wallac (Gaithersburg, Md.) AutoLumat LB953 luminometer. The IC50 is the peptide concentration that results in a 50% decrease in activity relative to control samples lacking peptide. For each peptide, data from three experiments were fit to a Langmuir equation [y=k/(1+([peptide]/IC50)], where y=luciferase activity and k is a scaling constant] to obtain the IC50 values.
(§2) HOS-CD4-Les cells were infected with HIV-1 pseudotyped with Env from HXB2 HIV-1 strain of either the wild type sequence or one of three variant sequences that confer resistance to C-peptides. The sequences of Res1 and Res2 Env, defined in FIG. 1, contain mutations in the gp41 HR1 region that decrease C-peptide binding affinity. The sequence of Res3 contains a mutation in the gp41 HR2 region (N637K) that confers partial resistance by enhancing the rate of viral membrane fusion. The IC50 (±SEM) values represent the mean of 2 or 3 independent titrations of the indicated C-peptide.

Experiment [3] concerns HIV-1 Res 2 (L33S). Type of experiment: cell-based. The settings on record: Table 2. On the procedure: as §1, §2
In experiment [4] the test system is HIV-1 Res 4 (SDTV). Type of experiment: cell-based. To be noted: Table 2.
In experiment [5] the test system is HIV-1 pseudotyped with wild type Env from strain HXB2 (HOS-CD4 target cells). In kind it is cell-based. On the procedure:
as §1, §2
(§3) The C37 variants generated were able to overcome resistance conferred by the HR1 region mutations. In FIG. 2, viruses pseudotyped with either wild type Env (closed squares) or V549E mutant Env (Res1, closed circles) from strain HXB2 were utilized to infect HOS-CD4-Les target cells. Infection took place in the presence and absence of C37 (FIG. 2A), C37-KYI (FIG. 2B) or (C37-GC)2 (FIG. 2C) and quantified by the expression of a luciferase-reporter construct. The IC50 values are indicated on the graph. A mutant variant of C37 with two substitutions (N637K and T6391), hereafter denoted C37-KYI, binds to a structural mimic of the gp41 HR1 region, the N-peptide known as N36 with an estimated equilibrium dissociation constant (Kd) of 40 fM, more than 20-fold lower than the Kd for wild type C37 (FIG. 2). The Hr1 and HR2 regions of three gp41 form an intermediate structure called the trimer-of-hairpins which is necessary for the viral entry process and membrane fusion with the host membrane.

The subject of experiment [6] is HIV-1 pseudotyped with V549E mutant Env (Res1, V38E) from strain HXB2. Type of experiment: cell-based. On the procedure:
as §1, §2, §3

In experiment [7] the test system is HIV entry. To be noted: read-out: IC50 against HIV entry; cited from earlier work.
The test system of experiment [8] is HIV-1 with resistance mutations at the gp41 HR1 region. To be noted: read-out: IC50 after emergence of resistance mutations; cited from earlier work.
The mark [9] stands for this setting: Table 2, read-out: IC50, WT HXB2.
The mark [10] stands for this setting: Table 1, HXB2 wild type Env, HOS-CD4-Les cells, mean of 2 or 3 titrations, read-out: IC50 (±SEM), WT Env.

Read-outs that look alike come from different tables or passages of the source. Ends that are not written are not given here.

Turning to `CC[C@H](C)[C@H](NC(=O)[C@H](CC(C)C)NC(=O)[C@H](CO)NC(=O)[C@H](Cc1c[nH]cn1)NC(=O)[C@@H](NC(=O)[C@H](CC(C)C)NC(=O)[C@H](CO)NC(=O)[C@@H](NC(=O)[C@H](Cc1ccc(O)cc1)NC(=O)[C@H](CC(N)=O)NC(=O)[C@H](CC(N)=O)NC(=O)[C@@H](NC(=O)[C@H](CCC(=O)O)NC(=O)[C@H](CCCNC(=N)N)NC(=O)[C@H](CC(=O)O)NC(=O)[C@H](Cc1c[nH]c2ccccc12)NC(=O)[C@H](CCC(=O)O)NC(=O)[C@H](CCSC)NC(=O)[C@H](Cc1c[nH]c2ccccc12)NC(=O)[C@@H](NC(=O)[C@@H](NC(=O)[C@H](Cc1c[nH]cn1)NC(=O)CNC(=O)CN)[C@@H](C)O)[C@@H](C)O)[C@@H](C)CC)[C@@H](C)O)[C@@H](C)CC)C(=O)N[C@@H](CCC(=O)O)C(=O)N[C@@H](CCC(=O)O)C(=O)N[C@@H](CO)C(=O)N[C@@H](CCC(N)=O)C(=O)N[C@@H](CC(N)=O)C(=O)N[C@@H](CCC(N)=O)C(=O)N[C@@H](CCC(N)=O)C(=O)N[C@@H](CCC(=O)O)C(=O)N[C@@H](CCCCN)C(=O)N[C@@H](CC(N)=O)C(=O)N[C@@H](CCC(=O)O)C(=O)N[C@@H](CCC(N)=O)C(=O)N[C@@H](CCC(=O)O)C(=O)N[C@@H](CC(C)C)C(=O)N[C@@H](CC(C)C)C(=O)NCC(=O)NCC(=O)N[C@@H](Cc1c[nH]cn1)C(=O)N[C@@H](Cc1c[nH]cn1)C(=O)N[C@@H](Cc1c[nH]cn1)C(=O)N[C@@H](Cc1c[nH]cn1)C(=O)N[C@@H](Cc1c[nH]cn1)C(=O)N[C@@H](Cc1c[nH]cn1)C(=O)O` [C37], the “fold reduction in inhibitory potency by HR1 region resistance mutations” value in experiment [1] was 100 fold. In addition, the IC50 was 7.1 ± 3.6 nM in experiment [2] (Table 2, read-out: IC50, Res 3 (N123K/L204I)); 1.3 ± 0.4 nM in experiment [3]; 53 ± 15 nM in experiment [4]; 1.3 ± 0.2 nM in experiment [5] (setting [9]); around 1 nM in experiment [5] (read-out: IC50 against viruses pseudotyped with EnvHXB2); 126 ± 24 nM in experiment [6] (Table 2, read-out: IC50, Res 1 (V38E)).

Turning to “(C37-GC)2: Disulfide-crosslinked dimeric C37 variant containing a Cys residue at the peptide's C-terminus (added Gly-Cys) (HTTWMEWDREINNYTSLIHSLIEESQNQQEKNEQELLGC; also: disulfide-crosslinked homodimer via C-terminal Cys)”, the IC50 in experiment [5] (setting [10]) came to 0.3 nM; in experiment [6] (Table 1, HOS-CD4-Les cells, read-out: IC50 (±SEM), Res 1 Env (HR1 mutant)) it was 0.3 nM. The “inhibition of wild type virus compared to monomeric C37” value in experiment [5] (in words) is given as “not significantly better”.

On to enfuvirtide, for which the IC50 is 6.4 ± 1.5 nM in experiment [2] (Table 1, HOS-CD4-Les cells, read-out: IC50 (±SEM), Res 3 Env (HR2 mutant)); around 1 nM in experiment [7]; 900 ± 150 nM in experiment [4]; 1.7 ± 0.4 nM in experiment [5] (setting [10]); 2.3 ± 1 nM in experiment [5] (setting [9]); above 900 nM in experiment [8].
